{
  "source": "patent US20170096492A1",
  "about": "“DOSAGE AND ADMINISTRATION OF ANTI-IGF-1R, ANTI-ErbB3 BISPECIFIC ANTIBODIES, USES THEREOF AND METHODS OF TREATMENT [sequence]” (Merrimack Pharmaceuticals, Inc., priority 2014, published 2017)",
  "key": {"mTOR": {"target": "mTOR (Homo sapiens, UniProt P42345)", "settings": "cited from earlier work"}, "[1]": {"test_system": "DU145 prostate cancer-derived xenograft tumors", "assay": "DU145 xenograft PD, western blot", "format": "in vivo, mice", "settings": "docetaxel 20 mpk i.p. single dose, tumors harvested Day 4", "excerpt": "(§1) For the PD studies described in FIGS. 6A-B and FIGS. 9 A-B, nu/nu female mice were inoculated with 8×10^6 DU145 or 5×10^6 BxPC-3 cells, respectively, in 1:1 Matrigel® suspension. […] Tumor lysates were generated and subjected to western blot analysis."}, "CAKI-1 xenografts": {"test_system": "CAKI-1 xenografts", "assay": "CAKI-1 xenograft PD, western blot", "format": "in vivo, mice", "settings": "single agent; MM-141 30 mpk i.p. or everolimus 10 mpk orally, 2 doses; tumors harvested 24 hours after second dose", "procedure": "For the PD study results shown in FIGS. 3A-B and FIGS. 5A-C, NOD/SCID female mice were inoculated with 12×10^6 CAKI-1 or 10×10^6 SK-ES-1 cells, respectively, in 1:1 Matrigel® suspension. […] Tumors were harvested 24 hours after the second dose of drug; lysates were generated and subjected to western blot analysis."}, "[2]": {"test_system": "BxPC-3 derived xenograft tumors", "assay": "BxPC-3 xenograft PD, western blot", "format": "in vivo, mice", "settings": "gemcitabine 150 mpk i.p. Day 0, 6; tumors harvested Day 7", "excerpt": "as §1"}, "[3]": {"test_system": "CFPAC-1 pancreatic cancer cells", "assay": "pAKT (Ser473) ELISA after chemotherapy and ligand stimulation", "format": "cell-based, human", "settings": "then HRG 5 nM or IGF-1 50 nM 15 minutes", "procedure": "(§2) CFPAC-1 pancreatic cancer cells were seeded at 65% confluence in 10% serum-containing medium on 96-well plates overnight. […] Following incubation, cells were treated with (FIG. 24A) HRG (5 nM) or (FIG. 24B) IGF-1 (50 nM) for 15 minutes, where indicated. After treatment, cells were harvested and protein lysates generated. Changes in pAKT (Ser473) levels across all treatments were evaluated by pAKT ELISA, respectively. FIGS. 24(A-B) are bar graphs showing pAKT levels relative to ligand alone stimulated signals, which were normalized to 1.\nas §2, with “25A)” for “24A)”, “25B)” for “24B)”, “25(A-B)” for “24(A-B)”"}, "[4]": {"test_system": "CFPAC-1 human pancreatic cancer cells", "assay": "HRG mRNA expression by real time PCR", "format": "cell-based", "settings": "24 hours", "procedure": "CFPAC-1 human pancreatic cancer cells were serum-starved by plating the cells in 2% serum-containing medium overnight, followed by treatment with vehicle, 500 nM gemcitabine, or 50 nM paclitaxel for 24 hours. Post-treatment, cell lysates were harvested, mRNA extracted, cDNA generated and changes in HRG mRNA expression evaluated by real time PCR. Bar graphs represent mean HRG mRNA expression relative to the geometric mean of three housekeeping genes (protein phosphatase 2 catalytic subunit alpha (PPP2CA), ribosomal protein L4 (RPL4), and glucuronidase beta (GUSB)), normalized to vehicle control."}, "[5]": {"test_system": "HepG2 hepatocellular carcinoma cells", "assay": "HepG2 western blot, sorafenib with or without MM-141", "format": "cell-based", "settings": "sorafenib 5 μM, 2 hours", "procedure": "HepG2 cells were plated on 12 well dishes (3×10^5 cells per well) in 10% serum-containing media and incubated overnight. […] Following treatment, cells were harvested in lysis buffer containing protease and phosphatase inhibitors and analyzed by western blotting."}},
  "note": "“Also recorded” adds a separate entry of the source.",
  "data": [
    {"smiles": "COc1ccc(-c2ccc3c(N4CCOC[C@@H]4C)nc(N4CCOC[C@@H]4C)nc3n2)cc1CO", "note": "[AZD8055]", "values": [
      {"measurement": "selectivity against PI3K isoforms and ATM/DNA-PK", "setting": "mTOR", "value": "~1,000 fold"}
    ]},
    {"smiles": "CC(=O)O[C@@]12CO[C@@H]1C[C@H](O)[C@@]1(C)C(=O)[C@H](O)C3=C(C)[C@@H](OC(=O)[C@H](O)[C@@H](NC(=O)OC(C)(C)C)c4ccccc4)C[C@@](O)([C@@H](OC(=O)c4ccccc4)[C@H]21)C3(C)C", "note": "[docetaxel, Docetaxel]", "values": [
      {"measurement": "ErbB3 protein expression level", "setting": "[1]", "value": "up-regulated"},
      {"measurement": "IGF-1R protein expression level", "setting": "[1]", "value": "up-regulated"}
    ]},
    {"smiles": "CO[C@H]1C[C@@H]2CC[C@@H](C)[C@@](O)(O2)C(=O)C(=O)N2CCCC[C@H]2C(=O)O[C@H]([C@H](C)C[C@@H]2CC[C@@H](OCCO)[C@H](OC)C2)CC(=O)[C@H](C)/C=C(\\C)[C@@H](O)[C@@H](OC)C(=O)[C@H](C)C[C@H](C)/C=C/C=C/C=C/1C", "note": "[everolimus, Everolimus, reference compound]", "values": [
      {"measurement": "total ErbB2", "setting": "CAKI-1 xenografts", "value": "upregulation"},
      {"measurement": "total IGF-1R", "setting": "CAKI-1 xenografts", "value": "upregulation"}
    ]},
    {"smiles": "Nc1ccn([C@@H]2O[C@H](CO)[C@@H](O)C2(F)F)c(=O)n1", "note": "[gemcitabine, Gemcitabine]", "values": [
      {"measurement": "total ErbB3", "setting": "[2]", "value": "up-regulation and activation"},
      {"measurement": "total IGF-1R", "setting": "[2]", "value": "up-regulation and activation"},
      {"measurement": "sensitivity to ligands, pAKT (Ser473)", "setting": "[3]; gemcitabine 1 μM 24 hours", "value": "increased sensitivity to HRG and IGF-1"},
      {"measurement": "HRG mRNA increase relative to vehicle control", "setting": "[4]; 500 nM gemcitabine", "value": "about 22 fold"}
    ]},
    {"smiles": "CC(=O)O[C@H]1C(=O)[C@@]2(C)[C@H]([C@H](OC(=O)c3ccccc3)[C@]3(O)C[C@H](OC(=O)[C@H](O)[C@@H](NC(=O)c4ccccc4)c4ccccc4)C(C)=C1C3(C)C)[C@]1(OC(C)=O)CO[C@@H]1C[C@@H]2O", "note": "[paclitaxel, Paclitaxel, reference compound]", "values": [
      {"measurement": "sensitivity to ligands, pAKT (Ser473)", "setting": "[3]; paclitaxel 100 nM 24 hours", "value": "increased sensitivity to IGF-1"},
      {"measurement": "HRG mRNA relative to vehicle control", "setting": "[4]; 50 nM paclitaxel", "value": "at least doubles"}
    ]},
    {"smiles": "CNC(=O)c1cc(Oc2ccc(NC(=O)Nc3ccc(Cl)c(C(F)(F)F)c3)cc2)ccn1", "note": "[sorafenib, Sorafenib]", "values": [
      {"measurement": "ErbB3 level", "setting": "[5]", "value": "up-regulated; also recorded: upregulation of ErbB3 activity"},
      {"measurement": "pAKT level", "setting": "[5]", "value": "up-regulated"}
    ]}
  ]
}
